Test results reported in patent US12410162B2, “Pyrazole acylhydrazone containing trifluoromethylthiadiazole units, preparation method and use thereof” (NANTONG UNIVERSITY, priority 2020, dated 2025).

System: Mycosphaerella melonis
Assay: Screening of bactericidal activity against Mycosphaerella melonis (toxic medium method)
Format: cell-based
Conditions: test concentration 200 μg/mL, 24-26° C. in the dark
Description: Screening of the Bactericidal Activity of the Samples Against Mycosphaerella melonis The toxic medium method was used to determine the antibacterial activity of the target against Mycosphaerella melonis. First the drug solution was added to the culture medium, then the bacterial cake was placed on the culture medium, the petri dish was placed in a 24-26° C. incubator in the dark, and then cultured at a constant temperature. Then according to the growth rate of pathogenic bacteria, when the diameter of the control was to about 8 cm, the antibacterial rate % was calculated. The test concentration was 200 μg/mL (the drug solution with other concentrations was obtained by diluting the drug solution with the concentration of 200 μg/mL).

Row | Structure (SMILES) | Mycosphaerella melonis (inhibition ratio, %) [%]
1 | Cc1nn(C)c(Oc2cccc(Br)c2)c1C=NNC(=O)c1snnc1C(F)(F)F [Ib] | 100
2 | Cc1nn(C)c(Oc2ccc(Cl)cc2Cl)c1C=NNC(=O)c1snnc1C(F)(F)F [Id] | 100
3 | Cc1nn(C)c(Oc2cccc(Cl)c2)c1C=NNC(=O)c1snnc1C(F)(F)F [Ia] | 100
4 | Cc1nn(C)c(Oc2ccc(F)cc2F)c1C=NNC(=O)c1snnc1C(F)(F)F [Ic] | 90
